Assay results from US5145955A, “Process for the preparation and composition of a fraction containing picroside I and kutkoside” (Council of Scientific & Industrial Research, priority 1991, dated 1992).
Where two headings read alike, the source gives them in different places.

What was measured:
[1] = test system: thioacetamide induced hepatic damage (liver); test: Protection against thioacetamide induced biochemical changes in liver in rat; format: in vivo
Description: Although cucurbitacin glucoside (III) was a known compound, its biological activity is reported here for the first time. […] At higher dose (1 mg/kg) also, it reversed the decrease in levels of DNA (56%), RNA (100%) and glycogen (36%).

[2] = test system: Plasmodium berghei infection in mastomys; test: Hepatoprotective activity against Plasmodium berghei infection-induced hepatic damage; format: in vivo; conditions: 1 mg/kg po × 15 days
[3] = test system: bile flow (choleretic effect); test: Choleretic effect of cucurbitacin glucoside and F006 (bile volume and bile contents); format: in vivo
[4] = test system: liver and serum biochemical parameters; test: Protection against altered liver and serum biochemical parameters (toxicant not given); format: in vivo
isolated rat hepatocytes = format: cell-based; conditions: paracetamol-toxicated
Description: In the isolated hepatocyte preparation the, hepatoprotective activity was assessed against paracetamol, galactosamine carbon tetrachloride and thioacetamide induced damage.
The effect of cucurbitacin glucoside and F006 was also studied on paracetamol-toxicated isolated rat hepatocytes (ex vivo). At the doses of 0.5 and 1 mg/kg po×7.

cholestasis = test: Anticholestatic effect against induced cholestasis; format: in vivo; conditions: paracetamol induced; 0.5 and 1 mg/kg po × 7
[5] = dose not given, range given for both agents

SMILES: CC(=O)OC(C)(C)C=CC(=O)C(C)(O)C1C(O)CC2(C)C3CC=C4C(CC(O[C@@H]5O[C@H](CO)[C@@H](O)[C@H](O)[C@H]5O)C(O)C4(C)C)C3(C)CCC12C (stereo partly drawn) [Cucurbitacin glucoside, 25-acetoxy-2β-D-glucopyranoxy-3,16,20-trihydroxy-9-methyl-19-norlanosta-5,23-diene-22-one]
- toxicant-induced decrease in activity of succinate dehydrogenase ([1]; higher dose (1 mg/kg)): reversed significantly
- toxicant-induced increase in activity of acid ribonuclease ([1]; higher dose (1 mg/kg)): reversed significantly
- protection against decrease in DNA level in liver ([1]; thioacetamide, 0.48 mg/kg): 94%
- protection against decrease in RNA level in liver ([1]; thioacetamide, 0.48 mg/kg): 95%
- protection against decrease in glycogen level in liver ([1]; thioacetamide, 0.48 mg/kg): 60%
- reversal of decrease in DNA level ([1]; thioacetamide, 1 mg/kg): 56%
- reversal of decrease in RNA level ([1]; thioacetamide, 1 mg/kg): 100%
- reversal of decrease in glycogen level ([1]; thioacetamide, 1 mg/kg): 36%
- protection against hepatic damage (biochemical parameters in serum and liver) [2]: marked protection
- increase in bile salts ([3]; 0.5 mg/kg): 40%
- increase in cholic acid ([3]; 0.5 mg/kg): 38.5%
- increase in deoxycholic acid ([3]; 0.5 mg/kg): 47.6%
- increase in volume of bile / bile flow ([3]; 0.5 mg/kg): 38%
- increase in bile salts ([3]; 1 mg/kg): 100%
- increase in cholic acid ([3]; 1 mg/kg): 100%
- increase in deoxycholic acid ([3]; 1 mg/kg): 100%
- increase in volume of bile / bile flow ([3]; 1 mg/kg): 90%
- activity of cytochrome P450 ([4]; 1 mg/kg): significantly restored
- activity of γ-glutamyl transpeptidase ([4]; 1 mg/kg): significantly restored
- level of DNA ([4]; 1 mg/kg): significant reversal
- level of RNA ([4]; 1 mg/kg): significant reversal
- level of glycogen ([4]; 1 mg/kg): significant reversal
- serum level of GOT ([4]; 1 mg/kg): restored almost completely towards normal
- serum level of GPT ([4]; 1 mg/kg): restored almost completely towards normal
- level of bilirubin in serum ([4]; dose not given): recovered
- level of protein in serum ([4]; dose not given): recovered
- protection, level of phospholipids ([4]; dose not given): significant protection
- protection, 5'-nucleotidase activity [4, 5]: 46-56%
- protection, acid ribonuclease activity [4, 5]: 48-96%
- protection, glucose-6-phosphatase activity [4, 5]: 46-61%
- protection, level of DNA [4, 5]: 55-78%
- protection, level of protein [4, 5]: 96-100%
- recovery of increased level of total lipids [4, 5]: 44-55%
- protection by Trypan blue exclusion test (cell viability) (isolated rat hepatocytes; 0.5 mg/kg po × 7): 97.4%
- rate of oxygen consumption / oxygen uptake test (isolated rat hepatocytes; 0.5 mg/kg po × 7): 100%
- protection by Trypan blue exclusion test (cell viability) (isolated rat hepatocytes; 1 mg/kg po × 7): 100%
- rate of oxygen consumption / oxygen uptake test (isolated rat hepatocytes; 1 mg/kg po × 7): 100%
- reversal of decrease in bile acids (cholestasis): completely reversed
- reversal of decrease in bile flow (cholestasis): completely reversed
- reversal of decrease in bile salts (cholestasis): completely reversed
